# “Also recorded” adds a separate entry of the source.
# Columns and labels:
# A. suum ovijector tissue = assay: Ascaris suum ovijector bioassay
# [1] = tested on: C. elegans (acs-20 cuticle defective mutant); assay: wMicroTracker motility assay; assay type: in vivo, Caenorhabditis elegans; conditions: 10 μM synthetic As-FLP-18A, M9, 12 h, n > 4 wells
# [2] = tested on: C. elegans (acs-20 cuticle defective mutant); assay: C. elegans body length assay; assay type: in vivo, Caenorhabditis elegans; conditions: 100 μM synthetic As-FLP-18A, 96 h, 20 °C, vs S-medium, n > 9 nematodes
# [3] = synthetic As-FLP-18A, 10 μM, HBSS, 10 min
Substance,"effect on ovijector muscle (A. suum ovijector tissue; synthetic As-FLP-18A, 1 nM to 10 μM, 10 min)","effect on ovijector muscle (A. suum ovijector tissue; synthetic As-FLP-18A, 10 nM to 1 μM)","response type (RT) on ovijector (A. suum ovijector tissue; synthetic As-FLP-18A, 1 μM to 10 nM, 10 min)","effect on ovijector muscle (A. suum ovijector tissue; synthetic As-FLP-18A, 1 μM, RT-2-like)",preparations with RT-1 response (A. suum ovijector tissue; [3]),preparations with RT-2 response (A. suum ovijector tissue; [3]),C. elegans motility (locomotory activity) [1],C. elegans growth (body length) [2],"effect on ovijector contractility (A. suum ovijector tissue; truncated synthetic peptide GFGDEMSMPGVLR, 10 μM)"
GFGDEMSMPGVLRF-NH2 [As-FLP-18A],concentration dependent myoexcitatory effects,consistent excitatory effects,RT-2 responses only,transient muscle contraction followed by muscle paralysis,64.2 % of preparations,35.7 % of preparations,significant inhibition of locomotion; also recorded: significantly reduced,this effect was mirrored; also recorded: significantly reduced,
GFGDEMSMPGVLR [truncated As-FLP-18A],,,,,,,,,lacks biological activity in A. suum muscle physiology assays
